Data: paper PMC10350924, “Design, Synthesis, and Pharmacological Characterization of a Potent Soluble Epoxide Hydrolase Inhibitor for the Treatment of Acute Pancreatitis” (Journal of Medicinal Chemistry, 2023)

Assays:
[1] = test system: cerulein-induced acute pancreatitis; assay: Cerulein-induced acute pancreatitis in mice; format: in vivo; details: 10 mg/kg i.p. 0.5 and 2.5 h after first cerulein injection; 6 h
Method: Male CD-1 mice (33–39 g, 8 weeks, Charles River Laboratories; Calco, Italy) were fed with standard rodent chow and water and acclimated for 4 days at a 12 h light and 12 h dark schedule in a constant air-conditioned environment (21 ± 2 °C). The mice were randomly assigned to groups, and experiments were carried out during the light phase. Experimental procedures were conducted in conformity with Italian (D.L. 26/2014) and European (directive 2010/63/EU) regulations on the protection of animals used for scientific purposes and approved by the Italian Ministry. Acute pancreatitis (AP) was induced in mice by intraperitoneal (i.p.) injections of cerulein (50 μg/kg) hourly (5 times).[56] The groups were: (a) Sham group which received saline i.p. hourly (×5); […] The mice were killed 6 h after the first cerulein injection. Blood samples were obtained by direct intracardiac puncture. Pancreases and lungs were removed immediately, frozen, and stored at −80 °C until assayed. Portions of these organs were also fixed in formaldehyde for histological and immunohistochemical examination. Pancreas and lung sections (6 μm) were stained for hematoxylin & eosin (H&E). Evaluation of pancreas edema and inflammation signs were performed with a three-point scoring system. […] Analysis was performed in a blinded manner. Evaluation of lung edema and inflammatory infiltration was performed with three-point scoring system: 0, absent; 1, mild; 2, moderate; 3, severe. […] Tissue sections were then incubated with normal goat serum (Vector Laboratories, Newark, California) for 20 min to reduce nonspecific antibody interactions. Sections were incubated with primary antibody diluted in 0.01 M PBS, 2.5% normal serum (anti-Neutrophils rat monoclonal antibody, dilution 1:100, Abcam) for 30 min. After rinsing with PBS 0.01 M for 5 min, slides were incubated with biotinylated goat anti-rat IgG (Vector Laboratories, Newark, California), diluted 1:200, for 30 min. After rinsing with PBS 0.01 M for 5 min, slides were incubated with VECTASTAIN ABC Reagent (Vector Laboratories, Newark, California) for 30 min. Color development was performed using […] 3,3′-diaminobenzidine solution (Sigma-Aldrich, Milan, Italy), and sections were analyzed using Leica Microsystem with a magnification of 20x. Semiquantitative determination of protein expression was obtained with ImageJ/Fiji software. Liver injury was assessed by measuring the rise in plasma levels of alanine aminotransferase (ALT, a specific marker for hepatic parenchymal injury) and aspartate aminotransferase (AST, a nonspecific marker for hepatic injury) 6 h after cerulein injection by a clinical laboratory. Results are expressed in international units per milliliter.

sEH = details: cited from earlier work
5-LOX [2] = molecular target: T1, 5-LOX (Homo sapiens, UniProt P09917); assay: Cell-free 5-LOX activity assay; format: biochemical; set-up: made in house; host or cells: Escherichia coli Bl21 (DE3); details: for IC50: human isolated 5-LOX
T1 sequence (P09917 1-674): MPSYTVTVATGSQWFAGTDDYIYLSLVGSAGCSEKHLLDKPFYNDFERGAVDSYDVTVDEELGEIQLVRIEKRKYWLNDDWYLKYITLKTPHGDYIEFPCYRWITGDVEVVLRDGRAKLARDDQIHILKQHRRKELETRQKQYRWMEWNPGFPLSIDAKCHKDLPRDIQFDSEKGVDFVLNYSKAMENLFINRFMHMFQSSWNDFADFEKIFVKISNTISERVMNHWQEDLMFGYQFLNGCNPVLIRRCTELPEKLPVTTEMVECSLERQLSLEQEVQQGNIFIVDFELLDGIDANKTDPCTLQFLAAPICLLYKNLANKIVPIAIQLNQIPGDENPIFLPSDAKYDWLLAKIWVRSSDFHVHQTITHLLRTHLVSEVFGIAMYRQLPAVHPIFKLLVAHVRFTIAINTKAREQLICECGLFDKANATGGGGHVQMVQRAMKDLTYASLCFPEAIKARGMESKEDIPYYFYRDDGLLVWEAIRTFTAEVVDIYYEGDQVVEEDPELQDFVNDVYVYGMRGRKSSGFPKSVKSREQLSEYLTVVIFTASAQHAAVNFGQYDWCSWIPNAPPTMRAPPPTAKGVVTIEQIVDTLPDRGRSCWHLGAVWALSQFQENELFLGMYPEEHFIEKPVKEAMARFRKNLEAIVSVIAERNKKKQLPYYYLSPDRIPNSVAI
Method: Human recombinant 5-LOX was expressed in Escherichia coli Bl21 (DE3) cells that were transformed with the plasmid pT3-5LO (wt 5-LOX) and purified on an adenosine triphosphate (ATP)-agarose column by affinity chromatography.[40],[41] In a first step, E. coli was lysed in 50 mM triethanolamine/HCl pH 8.0 with ethylenediamine tetraacetic acid (EDTA) (5 mM), soybean trypsin inhibitor (60 μg/mL), phenylmethanesulfonyl fluoride (1 mM), dithiothreitol (1 mM), and lysozyme (1 mg/mL) and sonicated 3 times for 15 s. The homogenate was centrifuged at 40,000g for 20 min at 4 °C. The supernatant was transferred to an ATP-agarose column (Sigma-Aldrich, Deisenhofen, Germany), which was sequentially washed with phosphate-buffered saline (PBS) pH 7.4, 1 mM EDTA, 50 mM phosphate buffer pH 7.4, 0.5 M NaCl, 1 mM EDTA, and finally 50 mM phosphate buffer pH 7.4 plus 1 mM EDTA. The enzyme was eluted with 50 mM phosphate buffer pH 7.4, 1 mM EDTA, and 20 mM ATP.
5-LOX product formation was started by the addition of 20 μM arachidonic acid (Sigma-Aldrich) and CaCl2 (2 mM) and stopped by the addition of an equal volume of ice-cold methanol containing PGB1 (200 ng) as internal standard after 10 min at 37 °C.

5-LOX [3] = molecular target: T1, 5-LOX; assay: 5-LOX product formation in human activated PMNL (A23187); format: cell-based; set-up: Freshly isolated PMNL (5 × 10^6) suspended in PBS pH 7.4 with 1 mg/mL glucose were preincubated with the test compounds; endogenous in cells; host or cells: human PMNL from donor blood; remaining activity: dose or concentration left out as unconfirmed; details: for remaining activity at 10 µM: read-out: 5-LOX residual activity in PMNL (%) at 10 μM; for remaining activity: PMNL, read-out: 5-LO residual activity in PMNL (%)
Method: Human PMNL were freshly isolated from leukocyte concentrates that were obtained from the Institute for Transfusion Medicine of the University Hospital Jena (Germany). […] These volunteers regularly donated blood (every 8–12 weeks) and were physically inspected by a clinician. […] Leukocytes were concentrated by centrifugation (4000g/20 min/20 °C) of freshly withdrawn blood. […] PMNL were obtained from the cell pellet. […] The reaction was stopped with an equal volume of methanol containing PGB1 (200 ng) as internal standard. Major 5-LOX products (all-trans isomers of LTB and 5-HETE, and additionally LTB4) were extracted and analyzed by RP-HPLC as described for the determination of cell-free 5-LOX activity.

Human recombinant sEH = molecular target: T2, Human recombinant sEH (Homo sapiens, UniProt P34913); assay: Cell-free sEH activity (PHOME fluorescence); format: biochemical; details: human isolated sEH
T2 construct: made in house; host or cells: Sf9 insect cells (recombinant baculovirus)
T2 sequence (P34913 1-555): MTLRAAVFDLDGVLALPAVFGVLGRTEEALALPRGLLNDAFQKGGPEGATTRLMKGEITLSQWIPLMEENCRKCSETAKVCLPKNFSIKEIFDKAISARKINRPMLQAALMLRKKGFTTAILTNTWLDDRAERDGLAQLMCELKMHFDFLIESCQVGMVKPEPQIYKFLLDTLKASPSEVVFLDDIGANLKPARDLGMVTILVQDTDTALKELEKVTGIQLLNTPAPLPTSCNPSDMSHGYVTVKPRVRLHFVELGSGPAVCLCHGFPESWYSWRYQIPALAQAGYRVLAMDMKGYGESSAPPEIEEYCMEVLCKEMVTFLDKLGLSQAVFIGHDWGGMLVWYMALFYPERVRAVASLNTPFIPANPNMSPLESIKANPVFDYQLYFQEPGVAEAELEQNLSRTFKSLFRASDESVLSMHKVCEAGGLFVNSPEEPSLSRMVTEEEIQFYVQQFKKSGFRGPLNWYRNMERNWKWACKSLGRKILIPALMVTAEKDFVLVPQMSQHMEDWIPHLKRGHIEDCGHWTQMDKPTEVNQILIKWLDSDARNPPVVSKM
Method: Human recombinant sEH was expressed in Sf9 insect cells and purified by affinity chromatography. […] Elution with 4-fluorochalcone oxide in PBS pH 7.4 with 1 mM dithiothreitol and 1 mM EDTA yielded sEH, which was dialyzed and concentrated. Purified sEH (60 ng) in 25 mM Tris HCl pH 7 with 0.1 mg/mL bovine serum albumin (BSA) was preincubated with the vehicle (DMSO) or test compounds for 1 min at room temperature. The sEH substrate PHOME (20 μM, Cayman Chemicals) was added to start the enzymatic reaction, which was stopped after 60 min in the dark by the addition of ZnSO4 (200 mM).

| SMILES | IC50 (5-LOX [2]) [nM] | remaining activity at 10 µM (5-LOX [3]; human activated PMNL) [%] | remaining activity (5-LOX [3]) [%] | IC50 (Human recombinant sEH) [nM] | inhibition of 5-LOX activity, times lower than 6 (5-LOX [2]; isolated 5-LOX, relative to compound 6) [times] | IC50 (5-LOX [3]; human activated PMNL) [nM] | pancreatic injury (edema, cell infiltration, neutrophil numbers) [1] | sEH inhibitory potency in words (Figure 1) (sEH) |
| --- | --- | --- | --- | --- | --- | --- | --- | --- |
| O=C(O)CCCCCCCCCCCNC(=O)NC12CC3CC(CC(C3)C1)C2 [AUDA, reference compound] |  |  |  |  |  |  | reduced pancreatic injury |  |
| O=C(Nc1ccc2c(c1)CCN2Cc1ccc(F)cc1)NC1CCCCC1 [Compound 53] |  |  |  |  |  |  |  | high sEH inhibitory potency |
| O=C(NCc1cccc2ccccc12)Nc1ccc2c(c1)CCN2Cc1ccc(F)cc1 [Compound 7, 1-(1-(4-Fluorobenzyl)indolin-5-yl)-3-(naphthalen-1-ylmethyl)urea] | 148 ± 28 | 56.3 ± 5.1 | 56.3 ± 5.1 | 36.1 ± 7.5 | ~2 |  |  |  |

Second part, led by results:

| IC50 (5-LOX [2]) [nM] | remaining activity at 10 µM (5-LOX [3]; human activated PMNL) [%] | remaining activity (5-LOX [3]) [%] | IC50 (Human recombinant sEH) [nM] | inhibition of 5-LOX activity, times lower than 6 (5-LOX [2]; isolated 5-LOX, relative to compound 6) [times] | IC50 (5-LOX [3]; human activated PMNL) [nM] | SMILES | pancreatic injury (edema, cell infiltration, neutrophil numbers) [1] | sEH inhibitory potency in words (Figure 1) (sEH) |
| --- | --- | --- | --- | --- | --- | --- | --- | --- |
| > 1000 | 80.9 ± 1.7 | 80.9 ± 1.7 | 4.4 ± 0.5 |  |  | O=C(NCC12C[C@H]3C[C@@H](C1)C[C@@H](C2)C3)Nc1ccc2c(ccn2-c2ccc(F)cc2)c1 [Compound 45, 1-(((3R,5R,7R)-Adamantan-1-yl)methyl)-3-(1-(4-fluorophenyl)-1H-indol-5-yl)urea] |  |  |
| > 1000 |  | 97.8 ± 0.3 | 13.4 ± 3.1 |  |  | O=C(Nc1ccc2c(ccn2Cc2ccc(F)cc2)c1)NC12C[C@H]3C[C@@H](C1)C[C@@H](C2)C3 [Compound 33, 1-((3S,5S,7S)-Adamantan-1-yl)-3-(1-(4-fluorobenzyl)-1H-indol-5-yl)urea] |  |  |
| > 1000 | 6.6 ± 4 | 6.6 ± 4 | 14.9 ± 4.6 |  | 6190 ± 2410 | NCc1ccc(Cn2ccc3cc(NC(=O)NCC45C[C@H]6C[C@@H](C4)C[C@@H](C5)C6)ccc32)cc1 [Compound 42, 1-(((3R,5R,7R)-Adamantan-1-yl)methyl)-3-(1-(4-(aminomethyl)benzyl)-1H-indol-5-yl)urea] |  |  |
| > 1000 | 51.8 ± 13 | 51.8 ± 13 | 27.2 ± 11.8 |  |  | NCCCn1ccc2cc(NC(=O)NCC34CC5CC(CC(C5)C3)C4)ccc21 [Compound 39, 1-(((3R,5R,7R)-Adamantan-1-yl)methyl)-3-(1-(3-aminopropyl)-1H-indol-5-yl)urea] |  |  |
